We go through 13 compounds from patent US20100055168A1, “CATIONIC LIPIDS AND USES THEREOF” (ABBOTT LABORATORIES, priority 2008, published 2010).

What all share (format): physicochemical
Conditions in all cases: Lipid:siRNA 25:1

Data set [1] in a line: Ribogreen assay for siRNA encapsulation efficiency of Lipid-Based Particles. The procedure: The mixing solution of cationic lipids, cholesterol, non-cationic lipids and PEG-lipids was prepared in ethanol (total concentration at 10 mg/mL). siSTABLE (purchased from ThermoFisher) (sense-5′ GGGGAAAGCUGGCAAGAUUUU-3′ SEQ ID NO: 1) antisense-5′-AAUCUUGCCAGCUUUCCCCUU-3′ SEQ ID NO: 2) % stock solution was prepared in 10 mg/mL of solution by dissolving 10 mg siRNA in 1 mL of RNAse-free UltraPure Water. The calculated amount of siRNA solution was added to 1 mL of citrate buffer (pH 4.0, 20 mM), to provide an siRNA concentration of 0.2 mg/mL, and warmed to 60° C. The calculated amount of lipid solution was warmed to 60° C., transferred to a 0.5 mL syringe with 28½ gauge needle, and injected into the citrate buffer with stirring at 60° C. After 3 minutes, 3 mL of PBS solution at room temperature (pH 7.4) was added into the lipid mixture with stirring. The Lipid-Based Particle solution was cooled to room temperature.
(§1) The siRNA concentrations were measured using Quanti-iT RiboGreen RNA reagent (Molecular Probes, (R11490)). Vesicle sizes were characterized by dynamic light scattering with a DynaPro™ Plate Reader (Wyatt Technology) in 96-well half-area UV plate (Coring) after diluting the formulation sample (20 μL) in phosphate buffered saline (80 μL) at a pH of about 7-8. A 1% agarose gel-based assay was used for analyzing nuclease degradation and protection. Encapsulation efficiency (EE) was calculated using data obtained from a RiboGreen assay.
RNA concentration and encapsulation efficiency were determined using a Quant-iT® Ribogreen RNA reagent and kit available from Invitrogen. The siRNA was released from the Lipid-Based Particle using one of the following reagents: ethanol, Triton X-100, or phenol/chloroform. The siRNA concentration is quantified using fluorescent reading at 480 nm/520 nm.
(§2) A round bottom flask was submerged into a 65° C. water bath. Citrate buffer (37.5 ml) of pH 4.0 was pipetted into the flask. The solution was stirred by a magnetic stirring bar at a speed of 900 rpm. Both the pH 4.0 citrate buffer and the lipid solution were pre-warmed in the 65° C. water bath for about 3 minutes. A siRNA solution (0.5 ml) was pipetted into the pH 4.0 citrate buffer. The 12.5 ml lipid mixture solution was injected through a 27 gauge needle into the citrate buffer in about 30 seconds. The needle tip was inserted into the solution during the injection. The resulting solution was stirred for 5 minutes at a speed of 900 rpm. The flask was pulled up from the water bath and a 50 ml pH 7.4 PBS buffer was added into the flask. The final solution was further mixed at a speed of 900 rpm for 5 minutes. For the diafiltration process, a dialysis filter (Millipore, 100K, Cat #PXB100C50) was used to remove ethanol in the above solution. When the volume was reduced to 20 ml during the initial diafiltration, 20 ml of pH 7.4 PBS was added to the sample solution. The diafiltration was continued until the volume was reduced to 20 ml. The diafiltration process was repeated 4 times. The volume of the sample solution was reduced to about 12 ml and pH 7.4 PBS was added to make the final volume of 15 ml. The 15 ml solution was filtered sequentially through the 0.45 and 0.22 μm sterile PVDF membrane filters (Millipore) and immediately transferred into a sterile vial.

Data set [2] is described as follows: Particle sizing assay of in vivo formulations (Zetasizer Nano ZS). The procedure:
as §2
For measurements of particle sizes and size distributions (PDI), lipid-based particles were prepared as described above. The particle solution (60 μL) was pipetted into a disposable cuvette (UVette, Eppendorf, cat #952010051) and measured in the “General Purpose” mode. Attenuator and position were optimized by the device. Measurements were performed using a Zetasizer Nano ZS (Malvern Instruments) equipped with a 4 mW He—Ne laser at a wavelength of 633 nm at 25° C. Scattered light was detected at a 173° backward scattering angle. The viscosity and refractive index of water at 25° C. was used for data analysis with the Dispersion Technology Software 5.00 (Malvern Instruments).

Data set [3] in a line: Particle sizing assay of in vitro formulations (dynamic light scattering, DynaPro plate reader). The procedure:
as §1
Particle sizes and size distributions (PDI) were characterized by using dynamic light scattering (DLS). A DLS plate reader (Dynapro™, Wyatt Technology) was used for the DLS measurement. This DLS plate reader uses an 830 nm laser and the scattering angle is 158°. It also can control temperature from 4° C. to 70° C. A 96-well format was employed for the samples.
Samples for DLS analysis were prepared by mixing 20 μL of each sample stock solution with 80 μL PBS directly in the 96-well plate (#3697, Coming). Sample mixing was accomplished using a microplate shaker (Orbis, Mikura Ltd.). Plates were read at 20° C. with an acquisition time of 50 seconds for each sample, and data was analyzed with Wyatt Technology's Dynamics V6 software. To rule out potential multiple scattering artifacts, a second plate at […] reduced sample concentrations was independently prepared by mixing 5 μL stock solutions with 95 μL PBS. Under our experimental conditions the results at the two concentrations were very similar, and the final reported result for each sample represents the average of values obtained from the two plates.

The mark [4] stands for this setting: in vivo formulation A: Cationic lipid/Example 58/DSPC/Chol 45/10/15/30 wt %.
Setting [5] is: in vitro formulation b: Cationic lipid/PEG-Chol/DSPC/Chol 45/10/15/30 wt %.
Setting [6] is: in vitro formulation a: Cationic lipid/Example 56/DSPC/Chol 45/10/15/30 wt %.
The mark [7] stands for this setting: in vivo formulation C: Cationic lipid/Pal-PEG-Cera/DSPC/Chol 45/10/15/30 wt %.
The mark [8] stands for this setting: in vivo formulation D: Cationic lipid/PEG-DMPE/PEG-DSPE/DSPC/Chol 44/4.5/4.5/14/33 wt %.

Regarding `CCCCC/C=C\C/C=C\CCCCCCCCOCC(COCCCCCCCC/C=C\C/C=C\CCCCC)NCCCn1ccnc1` [Example 3, N-(3-(1H-imidazol-1-yl)propyl)-N-(2-((9Z,12Z)-octadeca-9,12-dienyloxy)-1-(((9Z,12Z)-octadeca-9,12-dienyloxy)methyl)ethyl)amine], the “% Encapsulation Efficiency” value in data set [1] (setting [4]) worked out at 87.6%. Besides, in data set [2] (setting [4]), the Size was 185 nm.
Turning to `CCCCC/C=C\C/C=C\CCCCCCCCOCC(COCCCCCCCC/C=C\C/C=C\CCCCC)NCCN1CCN(C)CC1` [Example 8, N-(2-(4-methylpiperazin-1-yl)ethyl)-N-(2-((9Z,12Z)-octadeca-9,12-dienyloxy)-1-(((9Z,12Z)-octadeca-9,12-dienyloxy)methyl)ethyl)amine], the “% Encapsulation Efficiency” value in data set [1] (setting [5]) is reported as 81.8%. Also, in data set [3] (setting [5]), the Size is given as 107.6 nm.
Turning to `CCCCC/C=C\C/C=C\CCCCCCCCOCC(COCCCCCCCC/C=C\C/C=C\CCCCC)N1CCN(C)CC1` [Example 4, 1-methyl-4-(2-((9Z,12Z)-octadeca-9,12-dienyloxy)-1-(((9Z,12Z)-octadeca-9,12-dienyloxy)methyl)ethyl)piperazine], the “% Encapsulation Efficiency” value is 96.7% in data set [1] (setting [5]) and 72.6% in data set [1] (setting [4]). Besides, the Size in data set [3] (setting [5]) is listed as 125.6 nm; in data set [2] (setting [4]), 149 nm. The “PDI (size distribution)” value in data set [2] (setting [4]) was determined as 0.2.
For `CCCCC/C=C\C/C=C\CCCCCCCCOCC(COCCCCCCCC/C=C\C/C=C\CCCCC)N(C)CC1CCN(C)CC1` [Example 16, N-methyl-N-((1-methylpiperidin-4-yl)methyl)-N-(2-((9Z,12Z)-octadeca-9,12-dienyloxy)-1-(((9Z,12Z)-octadeca-9,12-dienyloxy)methyl)ethyl)amine], the “% Encapsulation Efficiency” value in data set [1] (setting [5]) is reported as 93.1%. For the same compound, in data set [3] (setting [5]), the Size is listed as 130 nm.
Turning to `CCCCC/C=C\C/C=C\CCCCCCCCOCC(COCCCCCCCC/C=C\C/C=C\CCCCC)NCc1cccc(CN2CCCC2)c1` [Example 13, N-(2-((9Z,12Z)-octadeca-9,12-dienyloxy)-1-(((9Z,12Z)-octadeca-9,12-dienyloxy)methyl)ethyl)-N-(3-(pyrrolidin-1-ylmethyl)benzyl)amine], the “% Encapsulation Efficiency” value in data set [1] (setting [6]) is reported as 97.1%. The compound further registered a Size in data set [3] (setting [6]) of 146 nm.
The corresponding values for `CCCCC/C=C\C/C=C\CCCCCCCCOCC(COCCCCCCCC/C=C\C/C=C\CCCCC)N1CCN(CCN2CCCC2)CC1` [Example 52, 1-(2-[(9Z,12Z)-octadeca-9,12-dienyloxy]-1-{[(9Z,12Z)-octadeca-9,12-dienyloxy]methyl}ethyl)-4-(2-pyrrolidin-1-ylethyl)piperazine] are 77.9% and 111.6 nm.
Turning to `CCCCC/C=C\C/C=C\CCCCCCCCOCC(COCCCCCCCC/C=C\C/C=C\CCCCC)NCCN(C)C` [Example 7, N,N-dimethyl-N′-(2-((9Z,12Z)-octadeca-9,12-dienyloxy)-1-(((9Z,12Z)-octadeca-9,12-dienyloxy)methyl)ethyl)ethane-1,2-diamine], the “% Encapsulation Efficiency” value in data set [1] (setting [5]) and in data set [1] (setting [7]) was 91.8% each time. Also, the Size amounted to 130 nm in data set [3] (setting [5]), 123 nm in data set [2] (setting [4]) and 119 nm in data set [2] (setting [7]). The results for the “PDI (size distribution)” value in data set [2] (setting [4]) and in data set [2] (setting [7]) were 0.15 and 0.128, respectively.
Take `CCCCC/C=C\C/C=C\CCCCCCCCOCC(COCCCCCCCC/C=C\C/C=C\CCCCC)NCCc1c[nH]cn1` [Example 9, N-(2-(1H-imidazol-4-yl)ethyl)-N-(2-((9Z,12Z)-octadeca-9,12-dienyloxy)-1-(((9Z,12Z)-octadeca-9,12-dienyloxy)methyl)ethyl)amine]: the figures for the “% Encapsulation Efficiency” value in data set [1] (setting [5]) and in data set [1] (setting [7]) were 95.8% and 98.9%, respectively. The Size in data set [3] (setting [5]) is recorded as 116.8 nm; in data set [2] (setting [4]), 138 nm; in data set [2] (setting [7]), 87 nm. For the same compound, the “PDI (size distribution)” value is 0.13 in data set [2] (setting [4]) and 0.104 in data set [2] (setting [7]).
For `CCCCC/C=C\C/C=C\CCCCCCCCOCC(COCCCCCCCC/C=C\C/C=C\CCCCC)NCCCN1CCCC1` [Example 6, N-(2-((9Z,12Z)-octadeca-9,12-dienyloxy)-1-(((9Z,12Z)-octadeca-9,12-dienyloxy)methyl)ethyl)-N-(3-pyrrolidin-1-ylpropyl)amine], the results for the “% Encapsulation Efficiency” value in data set [1] (setting [5]) and in data set [1] (setting [4]) were 84.2% and 75.5%, respectively. In addition, the results for the Size in data set [3] (setting [5]) and in data set [2] (setting [4]) were 132.6 nm and 121 nm, respectively. In addition, the “PDI (size distribution)” value in data set [2] (setting [4]) is reported as 0.145.
Consider `CCCCCCCC/C=C\CCCCCCCCOCC(COCCCCCCCC/C=C\CCCCCCCC)NCCCN1CCCC1` [Example 53, N-(2-[(9Z)-octadec-9-enyloxy]-1-{[(9Z)-octadec-9-enyloxy]methyl}ethyl)-N-(3-pyrrolidin-1-ylpropyl)amine], for which, in data set [1] (setting [5]), the “% Encapsulation Efficiency” value turned out to be 99.0%. For the same compound, in data set [1] (setting [8]), the “% Encapsulation Efficiency” value was found to be 99.0%. Moreover, in data set [2] (setting [8]), the “PDI (size distribution)” value was determined as 0.089 and the Size is recorded as 121.2 nm.
As to `CCCCC/C=C\C/C=C\CCCCCCCCOCC(COCCCCCCCC/C=C\C/C=C\CCCCC)NCc1cccc(CN2CCN(C)CC2)c1` [Example 15, N-(3-((4-methylpiperazin-1-yl)methyl)benzyl)-N-(2-((9Z,12Z)-octadeca-9,12-dienyloxy)-1-(((9Z,12Z)-octadeca-9,12-dienyloxy)methyl)ethyl)amine], the “% Encapsulation Efficiency” value in data set [1] (setting [6]) came out at 96.2%. The same compound displayed a Size in data set [3] (setting [6]) of 116 nm.
The corresponding values for `CCCCC/C=C\C/C=C\CCCCCCCCOCC(COCCCCCCCC/C=C\C/C=C\CCCCC)N1CCN(CCn2ccnc2)CC1` [Example 19, 1-(2-(1H-imidazol-1-yl)ethyl)-4-(2-((9Z,12Z)-octadeca-9,12-dienyloxy)-1-(((9Z,12Z)-octadeca-9,12-dienyloxy)methyl)ethyl)piperazine] are 97.0% and 118 nm.
For the compound `CCCCC/C=C\C/C=C\CCCCCCCCOCC(COCCCCCCCC/C=C\C/C=C\CCCCC)CN1CCN(C)CC1` [Example 23, 1-methyl-4-(3-((9Z,12Z)-octadeca-9,12-dienyloxy)-2-(((9Z,12Z)-octadeca-9,12-dienyloxy)methyl)propyl)piperazine], the “% Encapsulation Efficiency” value in data set [1] (setting [5]) was found to be 98.1%; in data set [1] (setting [4]), 93.2%. Further, in data set [2] (setting [4]), the “PDI (size distribution)” value amounted to 0.054. In addition, the Size in data set [2] (setting [4]) came to 116 nm.
